Experimental data: patent US12063914B2, “DNA sequence that increases odorant receptor representation in the olfactory system” (Research Foundation of the City University of New York, priority 2015, dated 2024)

Tests used:
M71 = target: T1, M71 (Mus musculus, UniProt Q60893); conditions: previous ex vivo data; liquid phase; cited from earlier work
T1 construct: from ex vivo analysis of genetically defined M71 OSNs in gene-targeted mice; host or cells: dendritic knobs of M71-expressing olfactory sensory neurons from gene-targeted mice
T1 sequence (Q60893 1-309): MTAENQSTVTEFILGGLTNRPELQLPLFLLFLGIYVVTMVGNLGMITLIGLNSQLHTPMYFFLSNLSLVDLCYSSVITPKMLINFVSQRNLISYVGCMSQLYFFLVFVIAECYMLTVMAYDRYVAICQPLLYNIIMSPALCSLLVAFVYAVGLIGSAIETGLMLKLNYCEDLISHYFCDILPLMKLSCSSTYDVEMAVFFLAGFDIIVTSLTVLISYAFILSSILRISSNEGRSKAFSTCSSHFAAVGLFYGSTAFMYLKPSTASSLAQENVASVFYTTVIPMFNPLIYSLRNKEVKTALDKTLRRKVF

M71 OR = target: T2, M71 OR (Mus musculus, UniProt Q60893); assay: In vivo synaptophluorin (SpH) imaging of odor-evoked glomerular activity in 4•M71Cα mice; conditions: for glomerular activity (in vivo SpH imaging): 4•M71Cα animals, vapor phase, odor dilutions 0% to 15%; for average highest (dF/F)max: hemizygous 4•M71Cα animals, ACP at 1.77 uM, 24dMACP at 0.66 uM; for average highest (dF/F)max / highest efficacy [(dF/F)max]: 4MACP at 0.69 uM; for efficacy [average (dF/F)max]: delivered at the same concentration, ˜0.70 uM; for highest efficacy [(dF/F)max]: homozygous 4•M71Cα animals, ACP at 2.66 uM, 24dMACP at 0.46 uM; for efficacy [(dF/F)max]: 0.71 uM; for response [(dF/F)max] at highest concentration delivered: 2.66 uM
T2 construct: the increase of OSNs expressing the M71 OR results in the coalescence of labeled axons; expressed in transfected cells; host or cells: olfactory sensory neurons of living transgenic mice (4•M71Cα, 5•M71Cα), made by pronuclear injection of the M71 minigene
T2 sequence (Q60893 1-309): T1 sequence (Q60893 1-309)
Description: Because the M71 OR is dorsally expressed in the olfactory bulb, any cloned OR using the M71 transgenic backbone will coalesce its axons onto dorsally located glomeruli, which makes them accessible for optical imaging. Optical imaging was therefore used to functionally characterize transgenic M71 projections in the OB. To examine their functional properties odor-evoked activity was imaged from the OBs of mice expressing the genetically encoded activity reporter SpH in all mature OSNs. Simultaneously recordings were obtained from mice that are either hemizygous or homozygous for 4•M71Cα (gene-targeted M71-GFP is out crossed) and heterozygous for SpH and identify red M71 glomeruli. Seven different M71-selective ligands were used from ex vivo analysis of genetically defined M71 OSNs in gene-targeted mice: three of these ligands produced responses by SpH imaging: Acetophenone (ACP), 4-methyl acetophenone (4MACP) and 2,4-dimethyl acetophenone (24dMACP) when delivered at different odor dilutions varying between 0% and 15%. The maximum change in fluorescence [(dF/F)max] per odor concentration was calculated for each compound over a 14 s trial period having a pre-odor (3 s), odor (4 s) and post-odor (4 s) acquisition. dF/F values for all glomeruli were calculated with a standardized 50 μm window, which is fully contained in all imaged glomeruli of both hemi and homo 4•M71Cα animals. (FIG. 2A, FIG. 2B and FIG. 2C: Each data point represents the average (dF/F). of 4-16 glomeruli imaged). […] All imaged mice are heterozygous for omp-SpH.
Olfactometry: Odors (purchased form Sigma Aldrich) were delivered using a custom built olfactometer controlled by an Arduino board with custom shields operating Teflon solenoids (Neptune Research) and connected to two Mass Flow Controllers (Alicat Scientific, Inc) to dilute the clean air (N2, max flow is 2 Lpm) and to dilute the odorized air (max flow is 300 SCCM). Nitrogen (N2) was used as the vapor carrier to avoid oxidation. Odor concentrations are expressed a % dilutions of saturated vapor and as molar saturated vapor concentration (μM s.v.), calculated using published vapor pressures at 25° Celsius (US EPA, Estimation Programs Interface Suite, v 4.0. Flow diluted odors were delivered at 2 Lpm mixed prior to the delivery site with air odorized with varying dilutions of odorant taken from the saturated headspace of pre-cleaned amber vials with white polypropylene closures and septum (J. G. Finneran) containing 99% pure odorants. To avoid contamination of the olfactometer, odorized air was never passed through the Teflon valves. Instead, odors were mixed with N2 in T-shaped mixing chambers (Neptune Research) and delivered to the animal's nose using an arduino controlled vacuum system. […] Output of the olfactometer was calibrated using the tracer odor Pinene and a photoionization detector (PID; Aurora Scientific).
In vivo SpH Imaging: Mice were anesthetized using Ketamine (100 mg/kg)/Xylazin (5 mg/kg) and maintained with Isoflurane (2.5% in 02) and immobilized using a stereotactic head holding device (Narishige, Inc.). Optical signals for SpH and mCherry were recorded using an ANDOR Neo 5.5 sCMOS camera connected to a NIKON AZ100 epifluorescence microscope (NIS Elements) with a 4× objective (numerical aperture 0.4). Excitation wavelengths of 475 nm for SpH and 575 nm for mCherry and emission of 520 nm for SpH and 635 nm for mCherry were used to obtain images of the dorsolateral bulb through thinned skull overlaying the bulb of a freely breathing animal. Each imaging trial consisted of a pre-odor (3 s), odor (4 s) and post-odor (4 s) acquisition, with a total acquisition time per trial of 14 s (including 3 s of valve switch delay). Using serial code, the arduino controlling the olfactometer was integrated in the NIS Elements software, so that the entire image acquisition sequence and flow-diluted odor delivery is controlled by the microscope software. […]

[1] = at 25° C.; cited from earlier work
human OR1A1 receptor = target: T3, human OR1A1 receptor (Homo sapiens, UniProt Q9P1Q5); assay: Two-bottle behavioral avoidance task with (−)-Carvone in 5•OR1A1Cβ mice; format: in vivo, mouse
T3 construct: expressed in transfected cells; host or cells: olfactory sensory neurons of living 5•OR1A1Cβ hemizygous transgenic mice
T3 sequence (Q9P1Q5 1-309): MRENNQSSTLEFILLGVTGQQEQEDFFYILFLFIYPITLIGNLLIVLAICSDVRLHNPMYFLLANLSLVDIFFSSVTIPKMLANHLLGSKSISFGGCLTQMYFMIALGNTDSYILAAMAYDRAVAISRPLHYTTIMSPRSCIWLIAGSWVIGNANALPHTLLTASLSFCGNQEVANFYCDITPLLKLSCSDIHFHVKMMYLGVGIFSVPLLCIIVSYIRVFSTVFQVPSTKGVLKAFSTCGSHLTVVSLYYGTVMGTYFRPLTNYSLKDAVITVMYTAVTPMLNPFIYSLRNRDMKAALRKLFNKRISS
Description: To further evaluate the versatility of this platform, the probability of choice of expression of a human OR was increased by cloning OR1A1 into the 5×21 M71 transgenic backbone. […] Again omp levels were not changed. Clearly, the representation of some ORs must be decreased to explain this equilibrium. In the 4•M71Cα homo animals, a mere 2-log increase in M71 RNA levels leads to a detectable 0.3-log change in threshold. Therefore, without wishing to be bound to any particular theory, it is believed that further increases in the neuronal representation of specific ORs may decrease detection thresholds even more. However, a delicate balance must exist between cell number and sensitivity. This hypothesis was tested using the established two-bottle behavioral avoidance task with the 5•OR1A1Cβ mice (FIG. 3B). Conditioning of 5•OR1A1Cβ hemi animals (n=12) was performed and their WT littermates (n=7) to water containing a 10-4 dilution of (−)-Carvone, a known OR1A1 ligand. For four consecutive days, animals were given the choice between plain water and water with decreasing (10-4, 10-6, 10-7 and 10-8) dilutions of (−) Carvone (FIG. 3C). Both groups (WT and Hemi) show clear aversion towards a 10^−4 dilution of (−)-Carvone (AVG PI WT=6.17% and AVG PI hemi=10.26%), reflecting successful conditioning. Both WT (AVG PI=55.52%) and Hemi (AVG PI=47.88%) cannot detect a 10^−8 dilution of (−)-Carvone. At 10^−6 and 10^−7 however, there is a clear difference in detection between WT and Hemi (10^−6: AVG PI WT=27.65% vs. AVG PI Hemi=11.41, Student's T-test p<0.01 and 10^−7: AVG PI WT=53.88% vs. AVG PI Hemi=30.24, Student's T-test p<0.05). […] These findings indicate that expressing OR1A1 in about 40% of the OSNs translates into a 2-log difference in (−)-Carvone detection thresholds.
Olfactory behavior test: A two-bottle discrimination test was performed as previously described. Since the mice are tested for the ability to detect a single odor in drinking water at increasingly lower concentrations, this discrimination assay is also considered a detection threshold test. Mice 8 weeks old were individually housed and given food ad libitum but restricted access to saccharin-phthalic acid solution (2.1×10^−2 M sodium saccharin and 10^−3M phthalic acid pH 6.5) for 1 h twice a day for two days before the assay begins. This ensures mice would commence drinking the solution during the conditioning. On day 3 (conditioning day) mice are exposed to sodium saccharine phthalic acid (SSPA) solution with 1 dilution of odorized water for 10 minutes. Immediately after, they are injected with lithium chloride intraperitoneally (15 μl/g body weight of a 0.6 M solution) to induce the aversive malaise and lethargy state. After two hours mice are returned to their home cage and given access to two bottles of drinking water; they are given the choice between SSPA solution containing a 10^−4 dilution of the odor versus the non-odorized SSPA solution. During the following 3 days, every 24 hours, the location of the bottles is reversed and the concentration of the odorized solution is decreased to 10^−6, 10^−7 and 0.5×10^−6, respectively. Every day both bottles are weighed to determine the amount of liquid consumed. A preference index was calculated as the amount of odorized solution consumed divided by the total amount of water solution consumed for each mouse for every 24 hour test period at each odor concentration. Student's t test was performed to test statistical significance, assuming two-tailed distribution and two-sample unequal variance. Values are mean±SEM and are plotted on a LOG scale.

CC(C)[C@@H]1CC[C@@H](C)CC1=O [menthone]
elicit a M71 response ex vivo (M71): did not

COc1ccc(C(C)=O)cc1 [4-metoxyacetophenone]
elicit a M71 response ex vivo (M71): did | ex vivo responder grade (M71): high responder | glomerular activity (in vivo SpH imaging) (M71 OR): does not show glomerular activation | saturated vapor pressure (Ps) [1]: 0.0133 mmHg

CC(=O)c1ccc(C)cc1 [4MACP, 4-methyl acetophenone]
elicit a M71 response ex vivo (M71): did | glomerular activity (in vivo SpH imaging) (M71 OR): observed | average highest (dF/F)max (M71 OR): 4.48% | efficacy [average (dF/F)max] (M71 OR; hemizygous animals): 4.48% | highest efficacy [(dF/F)max] (M71 OR): 3.82% | average efficacy (of all concentrations and odors) (M71 OR; homozygous animals): 3.83% | saturated vapor pressure (Ps) [1]: 0.0849 mmHg

CCc1occc(=O)c1O [ethylmalthol]
elicit a M71 response ex vivo (M71): did

C=C(C)C1CC=C(C)C(=O)C1 (single isomer, unassigned; (-)) [(−)-Carvone]
difference in detection thresholds (human OR1A1 receptor; 5•OR1A1Cβ hemi vs WT): 2 log | AVG PI (human OR1A1 receptor; 5•OR1A1Cβ hemi, 10^−4 dilution): 10.26% | AVG PI (human OR1A1 receptor; 5•OR1A1Cβ hemi, 10^−6 dilution): 11.41 | AVG PI (human OR1A1 receptor; 5•OR1A1Cβ hemi, 10^−7 dilution): 30.24 | AVG PI (human OR1A1 receptor; 5•OR1A1Cβ hemi, 10^−8 dilution): 47.88% | AVG PI (human OR1A1 receptor; WT littermates, 10^−4 dilution): 6.17% | AVG PI (human OR1A1 receptor; WT littermates, 10^−6 dilution): 27.65% | AVG PI (human OR1A1 receptor; WT littermates, 10^−7 dilution): 53.88% | AVG PI (human OR1A1 receptor; WT littermates, 10^−8 dilution): 55.52%

NCC(=O)c1ccccc1 [2 amino acetophenone]
elicit a M71 response ex vivo (M71): did

COC(=O)c1ccccc1 [methylbenzoate]
elicit a M71 response ex vivo (M71): did not

CC(=O)c1ccccc1 [ACP, Acetophenone]
elicit a M71 response ex vivo (M71): did | glomerular activity (in vivo SpH imaging) (M71 OR): observed | average highest (dF/F)max (M71 OR): 3.49% | efficacy [(dF/F)max] (M71 OR; hemizygous animals): 0.73% | efficacy [average (dF/F)max] (M71 OR; hemizygous animals): 0.73% | response [(dF/F)max] at highest concentration delivered (M71 OR; heterozygous (hemizygous) animals): 3.46% | highest efficacy [(dF/F)max] (M71 OR): 4.57% | efficacy [(dF/F)max] (M71 OR; homozygous animals): 3.00% | response [(dF/F)max] at highest concentration delivered (M71 OR; homozygous animals): 4.57% | saturated vapor pressure (Ps) [1]: 0.3260 mmHg

O=Cc1ccccc1 [benzaldehyde]
elicit a M71 response ex vivo (M71): did | ex vivo responder grade (M71): low responder
